Test results as given in PubChem BioAssay AID743127 (The Scripps Research Institute Molecular Screening Center, 2013).
Active and inactive are the calls of the source. No rule for the calls is given here.

Experiment: cell viability reduction in serum-free and serum medium – absorbance readout, serum-free and serum-supplemented medium, cytotoxicity control for LYPLA1/LYPLA2 inhibitor project, late-stage follow-up (AID 743127)
Conditions: serum-free or serum medium

Question: For `O=C(ON1C(=O)C2CN(C(=O)N3CCCCC3)CCN2C1=O)N1CCC(CCc2ccc(Cl)cc2)CC1` (centres undefined), which CC50 (in serum-free medium) is on record?
Answer: The CC50 was > 10 µM (inactive).

Question: What about the CC50 (in serum-supplemented medium) of the same compound?
Answer: Its CC50 is > 10 µM (inactive).

Question: Which results are given for `O=C(ON1C(=O)C2CN(C(=O)N3CCOCC3)CCN2C1=O)N1CCC(CCc2ccc(Cl)cc2)CC1` (centres undefined)?
Answer: CC50 (in serum-free medium): > 100 µM (inactive); CC50 (in serum-supplemented medium): 100 µM (inactive)
